Data reported in US7872025B2 (Bridge Pharma, Inc., priority 1999, dated 2011).
Entries after “also recorded” stand apart in the source; their conditions may differ.

Legend:
mice = test: Sedative side effects (physostigmine-induced lethality test); settings: mouse, in vivo
Experimental: The physostigmine-induced lethality test is being used in the present studies. […] In the present study, test compounds are administered orally 60 minutes prior to physostigmine. The numbers of survivors are counted 30 minutes after physostigmine administration.

histamine H-2 = histamine H-2 (Homo sapiens, UniProt P25021); test: Histamine H-2 antagonism (no method given)
[1] = test system: bronchial or other smooth muscle tissues; test: Antihistaminic effects in vitro (histamine contractions of smooth muscle strips); parameters: species or system guinea pigs; settings: listed as racemic norketotifen
Experimental: Strips of bronchial or other smooth muscle tissues are removed from the body of male guinea pigs weighing 400-600 g. The tissues are suspended in an oxygenated buffer of the composition (mM): NaCl, 133; KCl, 4.7; CaCl2, 2.5; MgSO4, 0.6; NaH2PO4, 1.3; NaHCO3, 16.3; and glucose, 7.7, or in a solution of a similar composition. The solution is maintained at 37.5 C. Contractions are recorded with isometric transducers (Model FT-10) on a Grass polygraph.
In order to assess the viability of each tissue and to serve as a frame of reference, contractions of each strip of tissue are recorded initially in response to exposure to an oxygenated buffer in which the NaCl is replaced by KCl to yield a concentration of 137.7 mM KCl. This is followed by return to the standard oxygenated buffer, and then by exposures to progressively increasing concentrations of histamine, with separate exposures to each concentration only until the peak response has been recorded. Then, leaving one tissue strip untreated, the remaining strips each are exposed for a predetermined time interval to one concentration of an antagonist. Finally, the responses to increasing concentrations of histamine followed by exposure to 137.7 mM KCl are recorded a second time.

inflammation = test: Anti-inflammatory effects (bronchial eosinophil accumulation; mouse ear croton oil inflammation); settings: in vivo
Experimental: Inhibition of eosinophil accumulation in lung is determined in sensitized guinea pigs (400 to 600 grams) following intraperitoneal injection of an allergen such as for example PAF (platelet aggregating factor) or bovine serum albumin. At a predetermined time thereafter, the animals are killed with a barbiturate. The trachea is exposed and cannulated. 6×10 ml aliquots of buffered modified Tyrode's solution (composition: NaHCO3 11.9, NaCl 136.9, KCl 2.7, Na2HPO4 0.4, glucose 5.6, EDTA 19.8, gelatin 0.1% w/v; pH 7.4) are introduced successively and aspirated by gentle compression of the lungs. Total fluid recovery normally exceeds 80%. Cell suspensions are concentrated by low speed centrifugation (200 G for 10 min) and the resulting cell pellet is resuspended in 1 ml modified Tyrode's solution. Total cell counts are made by diluting 10 μl of cell suspension in 90 μl of Turk's fluid. Differential cell counts are made from smears fixed in methanol (100%) and stained in Leishman stain. A total of at least 500 cells per smear are counted at 1000 fold magnification, in order to differentiate cell types. Drugs are administered as sustained subcutaneous infusions from an implanted Alza minipump (Alzet 2001 or similar) or by repeated oral or repeated parenteral injections.
Dermal antiinflammatory effects are tested using the mouse ear croton oil inflammation method. This test method is based on Tarrida, J. et al., Meth. Find. Exp. Clin. Pharmacol. (1996) 18(4):233-234 and Blazzo, et al., Prostaglandins (1995) 50:161-168. In short, male mice (25-30 g) are treated with 5 ml/kg of a 2 mg/ml solution of each test compound in physiological saline by intraperitoneal injection. Thirty minutes after injection, croton oil (0, 20 μl of 1.0% croton oil in acetone) or acetone (control) is topically applied to both ears of each mouse. Animals are restrained during croton oil or acetone application and then released into a cage. Before and at predetermined time intervals following croton oil or acetone application, groups of animals are anesthetized with halothane and euthanized by cervical dislocation. […]

histamine H1-receptor = target: T1, histamine H1-receptor (Cavia porcellus, UniProt P31389); test: Binding to histaminergic receptors (3H-pyrilamine binding); parameters: species or system guinea pig
T1 construct: from tissue; host or cells: guinea pig cerebellum membranes
Experimental: Briefly, membranes from guinea pig cerebellum are incubated with ^3H-pyrilamine and varying concentrations of the test compound(s). The specific binding of the radioactive ligand to the receptor is defined as the difference between total binding and nonspecific binding, determined in the presence of an excess of unlabelled ligand. The results are expressed as percentage of specific binding in the presence of compounds. […] These parameters are obtained by Hill equation curve fitting using Sigmaplot™ software.

T1 sequence (P31389 whole entry): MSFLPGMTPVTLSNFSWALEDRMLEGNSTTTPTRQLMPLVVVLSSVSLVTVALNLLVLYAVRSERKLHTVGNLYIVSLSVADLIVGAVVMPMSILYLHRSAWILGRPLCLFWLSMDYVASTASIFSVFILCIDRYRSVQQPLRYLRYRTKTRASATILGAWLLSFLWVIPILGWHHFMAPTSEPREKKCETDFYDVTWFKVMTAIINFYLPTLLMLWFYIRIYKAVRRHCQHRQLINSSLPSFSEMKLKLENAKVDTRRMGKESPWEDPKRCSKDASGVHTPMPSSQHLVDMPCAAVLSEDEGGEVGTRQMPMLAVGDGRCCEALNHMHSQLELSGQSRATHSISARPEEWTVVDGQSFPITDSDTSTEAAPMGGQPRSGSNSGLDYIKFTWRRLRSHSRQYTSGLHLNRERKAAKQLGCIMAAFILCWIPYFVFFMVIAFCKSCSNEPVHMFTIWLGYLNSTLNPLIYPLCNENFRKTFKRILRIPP
Sequence of histamine H-2 (P25021 whole entry): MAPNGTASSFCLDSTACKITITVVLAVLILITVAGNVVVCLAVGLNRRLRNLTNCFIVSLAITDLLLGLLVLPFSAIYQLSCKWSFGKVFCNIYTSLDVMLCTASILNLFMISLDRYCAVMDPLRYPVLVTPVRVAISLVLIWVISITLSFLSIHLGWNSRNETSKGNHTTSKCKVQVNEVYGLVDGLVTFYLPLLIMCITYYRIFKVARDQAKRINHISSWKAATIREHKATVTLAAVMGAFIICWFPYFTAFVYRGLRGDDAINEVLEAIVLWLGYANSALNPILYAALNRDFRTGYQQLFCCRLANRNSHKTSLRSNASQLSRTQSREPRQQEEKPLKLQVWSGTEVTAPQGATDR

SMILES | sedative side effects (mice) | histamine H-2 antagonism (histamine H-2) | antihistaminic effects [1] | anti-inflammatory effect (inflammation) | histamine H-1 receptor antagonism / blockade (histamine H1-receptor)
CN1CCC(=C2c3ccccc3CC(=O)c3sccc32)CC1 (racemic) [ketotifen, 4-(1-methyl-4-piperidyline)-4H-benzo(4,5) cyclohepta-(1,2-b) thiophene-10-one, reference compound] | severe and dose-limiting sedative activity | varying degree of histamine H-2 antagonism |  |  | 
O=C1Cc2ccccc2C(=C2CCNCC2)c2ccsc21 (racemic) [nor-ketotifen] | little or no sedative side effect | varying degree of histamine H-2 antagonism | qualitatively similar to the antihistaminic effects of racemic ketotifen; also recorded: potent anti-inflammatory and anti-histaminic properties | potent anti-inflammatory and anti-histaminic properties | histamine H-1 antagonists
CN1CCC(=C2c3ccccc3CC(O)c3sccc32)CC1 (stereo not drawn) [10-hydroxy-ketotifen] | significantly less sedation than ketotifen |  |  | inhibit inflammation | block histamine H-1 receptors
OC1Cc2ccccc2C(=C2CCNCC2)c2ccsc21 (stereo not drawn) [10-hydroxy-norketotifen] | significantly less sedation than ketotifen |  |  | inhibit inflammation | block histamine H-1 receptors
CN1CCC(=C2c3ccccc3CC(=O)c3sccc32)CC1 [R(+)-ketotifen] | almost all the sedative side effects were found to reside in R(+)-ketotifen |  |  |  | 
CN1CCC(=C2c3ccccc3CC(=O)c3sccc32)CC1 [S-isomer of ketotifen] | not causing the severe sedative side effects of ketotifen |  |  |  | 
